Assay results as given in publication PMC5506043, “Inhibitory effects of local anesthetics on the proteasome and their biological actions” (Scientific Reports, 2017).
Read-outs that look alike come from different tables or passages of the source. Where a SMILES comes first, the peptide text is derived from it. The star is where a group is joined. Cbz = O=C(OCc1ccccc1)*

Legend:
20S proteasome [1] = target: T1, 20S proteasome (Homo sapiens, UniProt P28074+P49721); experiment: 20S proteasome activity (chymotrypsin-like, Suc-Leu-Leu-Val-Tyr-MCA substrate); type: biochemical; details: for IC50: 37 °C, 1 h
T1 construct: purchased Calbiochem
Experimental: 20S Proteasome activity was assessed by fluorescence of free AMC (7-Amino-4-methylcoumarin, excitation: 380 nm, emission: 460 nm) liberated from a substrate peptide (Suc-Leu-Leu-Val-Tyr-MCA). The reaction mixture contained the 20S proteasome (500 μg/ml), the substrate peptide (10 μM) and the indicated drugs in 25 mM HEPES, 0.5 mM EDTA, 0.03% SDS, pH 7.6. The mixture was incubated at 37 °C for 1 h. AMC fluorescence liberated in the absence of drugs was taken as the basal value (100%). The fluorescence liberated in the absence of SDS was taken as the background value (0%)[13]. Most of the activity assays were conducted using an assay kit (Calbiochem), but some were conducted in hand-made buffer solutions.
Concentration dependence of the effects of each drug on the stability of the short-lived protein and the 20S proteasome activity was fitted using the following equation: B%=Bmax·[Drug]^n/(IC50^n+[Drug]^n) where, B% represents the changes in expression of the short-lived protein and the 20S proteasome activity induced by drugs at a given concentration of the [drug], and Bmax represents the maximum attainable reduction. IC50 and n are the half-maximal inhibitory concentration and Hill coefficient, respectively.

p53 in MKN45 cells = experiment: Endogenous p53 expression in MKN45 cells (Western blot); type: cell-based; details: 24 h
Experimental: Cell lysates were analyzed by Western blot analysis (a). Quantitative analysis of p53-FLAG stability using densitometry is shown in (b). Each point was expressed relative to the values in the absence of drugs (100%). […] Cell lysates were analyzed by Western blot analysis (c). Quantitative analysis of the protein level of endogenous p53 was conducted using densitometry (d).
(§1) The same amounts (10 μg) of protein were separated on SDS-PAGE and electro-transferred to a polyvinylidene difluoride membrane. Membranes were probed with antibodies against FLAG (1:1000, Cosmo Bio), GFP (1:1000, Molecular Probes), ubiquitin (1:1000, MBL) or β-actin (1:1000, Oncogene) and were developed using an ECL detection system. Immunoprecipitation was carried out in PBS/1% Triton X-100, 0.5% SDS, 0.25% sodium deoxycholate, 1 mM ethylenediaminetetraacetic acid (EDTA), and 10 μg/ml aprotinin, 10 μg/ml leupeptine, 10 μg/ml pepstatin and 1 mM phenylmethylsulfonylfluoride for 2 h at 4 °C. Immune complexes were collected with protein G agarose (GE Healthcare Life Science) and bound proteins were analyzed by SDS-PAGE followed by immunoblotting.

20S proteasome [2] = target: T1, 20S proteasome; experiment: [3H]-pilsicainide binding assay; details: displacement of [3H]-pilsicainide, 1 h, room temperature
Experimental: Commercially available 20S proteasome was purchased from Calbiochem. LAs and their derivatives at increasing concentrations (10^–8 to 10^–2 M) were incubated with [^3H]-pilsicainide for 1 h at room temperature in buffer containing 50 mM HEPES supplemented with 1% bovine serum albumin (pH 7.4). Following the reaction termination by addition of 100% […], the bound and unbound ligands were separated by centrifugation. Specific binding was defined as the difference between binding capacities in the pellet and supernatant.

p53-FLAG in COS7 cells = experiment: p53-FLAG expression in transfected COS7 cells (Western blot); type: cell-based
Experimental: pcDNA3/p53-FLAG was a kind gift from Dr. Nakayama (Kyushu University). pcDNA3/Mdm2 (C438A) was a kind gift from Dr. Yasuda (Tokyo Pharmaceutical College). pCR/CMV/hH1 was a kind gift from Dr. Makita (Hokkaido University). COS7 cells were maintained in Dulbecco’s modified Eagle medium (Gibco BRL)/10% fetal bovine serum at 37 °C in a 5% CO2 incubator. Cells were transfected using lipofectamine (Gibco BRL) according to the instructions provided by the manufacturer. Forty-eight hours after transfection, cells were assayed. Proteasome inhibitors or LAs were applied 36 hours after transfection. All drugs except for MG132 were dissolved in culture medium or distilled water. MG132 was dissolved in dimethyl sulfoxide (DMSO). The final concentration of DMSO in the culture or reaction medium was equal to or less than 0.01% v/v. Pilsicainide was kindly provided by Daiichi Suntory Pharmaceutical Co., Ltd. (Osaka, Japan).
as §1

20S proteasome [3] = target: T1, 20S proteasome; parameters: method as in PMID 23026372; details: previously reported; cited from earlier work
MKN45 cells [4] = experiment: Tumor growth of pretreated MKN45 cells transplanted into mice; type: in vivo; details: MKN45 cells pretreated with drug, transplanted into the intestine of SOD SKID mice
Kato III cells = experiment: Proliferation of Kato III cells; type: cell-based; details: 24 h; pilsicainide 1 μM, lidocaine 20 μM; cells do not express p53
MKN45 cells [5] = experiment: Proliferation of MKN45 cells (MTT assay); type: cell-based; details: 24 h, p53-expressing cells
From the text: Figure 4 Effects of LAs on cancer cells. (a) Effects of LAs on the proliferation of MKN45 cells. […] Proliferation of […] was estimated by MTT assays.

[6] = target: T2, wild-type 20S proteasome caspase-like activity (Saccharomyces cerevisiae, UniProt P38624); experiment: Caspase-like activity of the wild-type 20S proteasome; type: biochemical
T2 construct: U.B. purified the yeast 20S proteasome and assayed proteasome activity; made in house; host or cells: yeast (purified from wild-type cells; inferred)

[7] = target: T3, wild-type 20S proteasome trypsin-like activity (Saccharomyces cerevisiae, UniProt P25043); experiment: Trypsin-like activity of the wild-type 20S proteasome; type: biochemical
T3 construct: U.B. purified the yeast 20S proteasome and assayed proteasome activity; made in house; host or cells: yeast (purified from wild-type cells; inferred)

[8] = COS7 cells transfected with p53-FLAG
[9] = COS7 cells, dominant negative Mdm2 (C438A), 12 h, MG132 50 µM, pilsicainide 20 µM, lidocaine 1 mM

Compound: O=C(CC12CCCN1CCC2)Nc1ccccc1F [2-F]
- Effect on 20S proteasome activity (in words) (20S proteasome [1]; in vitro): partially inhibited
- IC50 (20S proteasome [1]; in vitro): 21.5 ± 46.8 µM

Compound: O=C(CC12CCCN1CCC2)Nc1cccc(F)c1 [3-F]
- Effect on 20S proteasome activity (in words) (20S proteasome [1]; in vitro): partially inhibited
- IC50 (20S proteasome [1]; in vitro): 20.5 ± 21.8 µM

Compound: O=C(CC12CCCN1CCC2)Nc1ccc(F)cc1 [4-F]
- Endogenous p53 protein level (in words) (p53 in MKN45 cells): increased p53 a little
- Kd (20S proteasome [2]): 20 ± 3.2 µM
- Effect on 20S proteasome activity (in words) (20S proteasome [1]; in vitro): partially inhibited
- Expression of p53-FLAG protein (in words) (p53-FLAG in COS7 cells; [8]): partially increased

Compound: Cc1cccc(CCN2CCC(C(=O)c3ccc(NS(C)(=O)=O)cc3)CC2)n1 [E-4031]
- Effect on 20S proteasome activity (in words) (20S proteasome [1]; in vitro): Neither the Ca^2+ channel blocker verapamil which contains two aromatic rings, nor the K^+ channel blocker E-4031, affected the activity

Compound: CC(C)C[C@@H](C=O)NC(=O)[C@H](CC(C)C)NC(=O)[C@H](CC(C)C)NC(=O)OCc1ccccc1 [MG132] (Cbz-Leu-Leu-Leu-aldehyde)
- Effect on p53-FLAG with co-expression of the C438A mutant of Mdm2 (in words) (p53-FLAG in COS7 cells): abolished the effects
- Expression of p53-FLAG protein (in words) (p53-FLAG in COS7 cells): increased the expression of p53-FLAG

Compound: NC1=N[C@H](O)[C@H]2[C@H]3O[C@]4(O)O[C@@H]([C@@H](O)[C@@]2(N1)[C@@H]4O)[C@]3(O)CO [Tetrodotoxin]
- Effect on 20S proteasome activity (in words) (20S proteasome [1]): did not inhibit 20S proteasome activity

Compound: CCN(CC)CCCN(c1ccccc1)C1Cc2ccccc2C1 [aprindine]
- Effect on 20S proteasome activity (in words) (20S proteasome [1]; in vitro): inhibit the 20S proteasome

Compound: CC(C)COCC(CN(Cc1ccccc1)c1ccccc1)N1CCCC1 (stereo not drawn) [bepridil]
- Inhibitory action on the proteasome (in words) (20S proteasome [3]): did not show the inhibitory action on the proteasome

Compound: CCN(CC)CC(=O)Nc1c(C)cccc1C [lidocaine]
- Endogenous p53 protein level (in words) (p53 in MKN45 cells): increased the p53 protein level in MKN45 cells in a dose-dependent manner
- Kd (20S proteasome [2]): 21.2 ± 3.5 µM
- Effect on 20S proteasome activity (in words) (20S proteasome [1]; in vitro): inhibited 20S proteasome activity
- Expression of p53-FLAG protein (in words) (p53-FLAG in COS7 cells; [8]): increased the expression of p53-FLAG
- Effect on p53-FLAG with co-expression of the C438A mutant of Mdm2 (in words) (p53-FLAG in COS7 cells; [9]): abolished the effects
- Tumor growth of transplanted MKN45 cells (in words) (MKN45 cells [4]): significantly decreased the proliferation of MKN45 cells
- Tumor growth of transplanted MKN45 cells (in words) (MKN45 cells [4]; listed as Lidocaine): suppression of tumor growth
- Suppression of proliferation of Kato III cells (in words) (Kato III cells): not observed
- Proliferation of MKN45 cells (in words) (MKN45 cells [5]): suppressed proliferation of MKN45 cells in a dose-dependent manner

Compound: Cc1cccc(C)c1OCC(C)N (stereo not drawn) [mexiletine]
- Effect on 20S proteasome activity (in words) (20S proteasome [1]; in vitro): inhibit the 20S proteasome
- IC50 (20S proteasome [1]; in vitro): 14 ± 6.3 µM

Compound: Cc1cccc(C)c1NC(=O)CC12CCCN1CCC2 [pilsicainide]
- Endogenous p53 protein level (in words) (p53 in MKN45 cells): increased the p53 protein level in MKN45 cells in a dose-dependent manner
- Caspase-like activity inhibition (in words) [6]: not inhibited
- Kd (20S proteasome [2]): 1 ± 2.8 µM
- Effect on 20S proteasome activity (in words) (20S proteasome [1]; in vitro): inhibited 20S proteasome activity
- IC50 (20S proteasome [1]; in vitro): 3.5 ± 1.5 µM
- Expression of p53-FLAG protein (in words) (p53-FLAG in COS7 cells; [8]): increased the expression of p53-FLAG
- Effect on p53-FLAG with co-expression of the C438A mutant of Mdm2 (in words) (p53-FLAG in COS7 cells; [9]): abolished the effects
- Suppression of proliferation of Kato III cells (in words) (Kato III cells): not observed
- Proliferation of MKN45 cells (in words) (MKN45 cells [5]): suppressed proliferation of MKN45 cells in a dose-dependent manner
- Trypsin-like activity inhibition (in words) [7]: not inhibited

Compound: COc1ccc(CCN(C)CCCC(C#N)(c2ccc(OC)c(OC)c2)C(C)C)cc1OC (stereo not drawn) [verapamil]
- Effect on 20S proteasome activity (in words) (20S proteasome [1]): Neither the Ca^2+ channel blocker verapamil which contains two aromatic rings, nor the K^+ channel blocker E-4031, affected the activity
